Columns and labels:
MCF7 = experiment: Cytotoxicity against human MCF7 cells after 48 hrs by MTT assay; type: functional, cell-based; details: MCF7, 48 h
[1] = biological target: Protein farnesyltransferase (Homo sapiens, UniProt P49354+P49356); experiment: Inhibition of human FTase using farnesyl pyrophosphate as substrate by fluorescent assay; type: protein-complex assay

SMILES | IC50 [1] | IC50 (MCF7)
Cc1cccc(Oc2ccc(NC(=O)c3ccccc3C(=O)O)cc2)c1C | 6.9 µM | > 100 µM
Cc1ccc(Oc2ncccc2NC(=O)CC(CC(=O)O)c2ccccc2)c2c1CCC2 (stereo unspecified) | 13.3 µM | > 100 µM
Cc1ccc(Oc2ncccc2NC(=O)CCCC(=O)O)c2c1CCC2 | 5.4 µM | > 100 µM
COc1cc(/C=C2\S/C(=N\c3ccccc3)N(Cc3ccco3)C2=O)ccc1OC(C)C(=O)O (stereo unspecified) | 5.14 µM | > 100 µM
Oc1ccc(NCc2cc(Cl)ccc2OCc2ccccc2F)cc1 | 4.21 µM | 12.2 µM
N#Cc1c(SCc2ccc(C(=O)O)cc2)nc2c(c1-c1ccccc1)CCC2 | 5.6 µM | > 100 µM
COCCN1C(=O)C(O)=C(C(=O)c2ccc(C)cc2)C1c1cccc(Oc2ccccc2)c1 (stereo unspecified) | 8.8 µM | > 100 µM
O=C(c1ccccc1)c1ccc(/N=C/c2cc([N+](=O)[O-])ccc2O)cc1 | 11 µM | > 100 µM
Cn1cncc1[C@@](N)(c1ccc(Cl)cc1)c1ccc2c(c1)c(-c1cccc(Cl)c1)cc(=O)n2C [TIPIFARNIB] | 0.003 µM | 3.08 µM

Continued, in another order:

IC50 [1] | SMILES | IC50 (MCF7)
3.89 µM | CCOC(=O)c1c(C)oc2c1cc(NS(=O)(=O)c1ccc(C(=O)O)cc1)c1ccccc12 | 46.7 µM
0.0119 µM | Oc1cccc2ccc(/C=C/c3ccccc3OCc3ccccc3Cl)nc12 | > 100 µM
0.0489 µM | Cc1cncc(NC(c2cccc(OCc3ccccc3)c2)c2ccc3cccnc3c2O)c1 (stereo unspecified) | 14.3 µM
0.0515 µM | CCN(CC)c1ccc(/C=N/Nc2nc(NCc3ccco3)nc(Nc3ccc(OC)cc3)n2)c(OCc2ccc(Cl)cc2Cl)c1 | > 100 µM
0.14 µM | O=C(N/N=C\c1cn(Cc2ccc([N+](=O)[O-])cc2)c2ccccc12)c1cc2ccccc2o1 | > 100 µM
0.37 µM | COc1ccc(-c2cc(C(=O)OCC(=O)c3cccc4ccccc34)c3ccccc3n2)cc1 | > 100 µM
0.44 µM | Cc1ccc(OC(=O)c2ccc3c(c2)C(=O)N(c2cccc4ccccc24)C3=O)cc1 | > 100 µM
0.52 µM | O=C(c1ccc(Cl)cc1)N1N=C(c2c(-c3ccccc3)c3cc(Br)ccc3[nH]c2=O)CC1c1ccco1 (stereo unspecified) | 32.2 µM
1.46 µM | COc1cccc(C2C(C(=O)/C=C/c3ccccc3)=C(O)C(=O)N2c2ccccc2)c1 (stereo unspecified) | > 100 µM
2.57 µM | COc1cc(CNc2ccc(O)cc2)cc(Cl)c1OCc1ccc(Cl)cc1 | 20.5 µM
2.58 µM | CC1=NN(c2ccccc2)C(=O)/C1=C/c1ccccc1OCc1ccc(C(=O)O)cc1 | 38.9 µM
3.22 µM | O=C(O)c1ccc(/N=[N+](/[O-])c2ccccc2Sc2ccccc2C(=O)O)cc1Sc1ccccc1O | > 100 µM
3.52 µM | Cc1c(Cc2ccccc2)sc(CC(=O)CCC(=O)O)c1C(N)=O | > 100 µM
3.56 µM | O=C(O)C1CCCCC1C(=O)Nc1ccc(Oc2ccccc2)cc1 (stereo unspecified) | > 100 µM

Reference: ChEMBL document CHEMBL3132843, “Discovery of novel inhibitors for human farnesyltransferase (hFTase) via structure-based virtual screening” (Medchemcomm, 2013)
